pEC50: −log10 of the molar value. Where “and” joins values, the source holds several entries; their conditions need not be identical. Identical values can stand only once.
What was measured:
MCF-7 = test: Cell growth inhibition, MCF-7; type: cell-based; conditions: read-out: EC50, antiproliferative activity
Method: (§1) The anti-proliferation assays for non-breast cancer cells were done using a previously developed assay. In brief, for Kasumi-1 cells, […] were added into 96-well plates and cultured with increasing concentrations of a compound in RPMI-1640 medium supplemented with 20% fetal bovine serum and penicillin (100 U/mL) and streptomycin (100 µg/mL) at 37° C. in a 5% CO2 atmosphere with 100% humidity. For solid tumor cells, 10^5 cells per well were added into 96-well plates and cultured in Dulbecco’s Modified Eagle’s Medium (DMEM) supplemented with 10% fetal bovine serum and penicillin (100 U/mL) and streptomycin (100 µg/mL) overnight. Upon addition of increasing concentrations of a compound, cells were incubated for 5 days. Cell viability was assessed by using an XTT assay kit (Roche) for leukemia cells or an MTT assay (Sigma) for attachment cells. For the breast cancer MCF-7 cells, culture and inhibition assays were performed according to our previous methods in Ref. 25 and 26. Compound EC50 values were calculated from dose response curves using Prism 5.0.

MCF-7 (Tam-R) = test: Cell growth inhibition, tamoxifen-resistant MCF-7; type: cell-based; conditions: read-out: EC50, antiproliferative activity
Method: as §1

MDA-PANC-28 = test: Cell growth inhibition, MDA-PANC-28 (MTT); type: cell-based; conditions: MDA-PANC-28, 5 days; read-out: EC50, antiproliferative activity
Method: as §1

[1] = system: ER+ breast cancer MCF-7 cells; test: RNA sequencing / gene set enrichment analysis (GSEA); type: cell-based, human; conditions: MCF-7, 6 µM, 48 h, with estradiol 10 nM
Method: RNA sequencing was used to investigate how treatment with p300 HAT inhibitor 12 affects gene expression in ER^+ breast cancer MCF-7 cells. […] RNA sequencing data were mapped onto the human genome and gene expression profiles were determined and normalized. […] Gene set enrichment analysis (GSEA)(31) was used to analyze significant gene expression changes between these three groups of MCF-7 cells.
Upon starvation (culturing in phenol red-free DMEM medium with 10% charcoal treated FBS to remove hydrophobic hormones such as estrogens) for 7 days, MCF-7 cells were treated with the p300 inhibitor (6 µM) or DMSO control, in the presence or absence of (10 nM) estradiol (E2) for 48 hours. Total RNA was extracted using RNeasy Plus Mini Kit (Qiagen), according to the manufacturer’s instruction.
The RNA integrity for each sample was assessed with a RNA 6000 Nano chip on a 2100 Bioanalyzer (Agilent; Santa Clara, CA). The average RNA integrity score for the sample set was 6.48. Sequencing libraries were prepared using the TruSeq Stranded Total RNA Library Prep Kit (Illumina, Inc; San Diego, CA). Concisely, ribosomal RNA (rRNA) was depleted from total RNA where the remaining (ribo-depleted RNA) was purified, fragmented for 7.5 minutes, and primed for cDNA synthesis. […] The concentration of each library was determined by quantitative PCR (qPCR) by the KAPA Library Quantification Kit for Next Generation Sequencing (KAPA Biosystems; Woburn, MA).
Libraries were normalized to 50 nmol/L in 10 mM Tris-Cl, pH8.5 with 0.1% Tween 20 then pooled evenly. […] Sequencing-by-synthesis (SBS) was performed on a HiSeq 2500 utilizing v2 chemistry with paired-end 101 bp reads and a 6 bp index read culminating in an average output of 20 million paired-end reads (or 40 million total reads) per sample. Sequence read data were processed and converted to FASTQ format by Illumina BaseSpace analysis software (v2.0.13).
RNAseq data files were trimmed using Trim Galore!. […] Gene expression was assessed and fragments per kilobase of transcript per million (FPKM) values were determined using Stringtie. […]

For `CC(C)(C)c1ccc(-c2cc(CNCC3CCNCC3)sc2-c2ccc(C(C)(C)C)cc2)cc1` [Compound 12], the pEC50 (MCF-7) was 5.55 and ~5.52, the pEC50 (MCF-7 (Tam-R)) was 5.47 and the pEC50 (MDA-PANC-28) was 5.55. The “normalized enrichment score (NES), genes suppressed by p300 knockdown (GSE31873)” value ([1]; FIG. 7A) was -3.32, the “NES, gene set upregulated by estradiol” value ([1]; FIG. 7B) was -9.19 and the “NES, genes suppressed by estradiol” value ([1]; FIG. 7C) was 7.41.

Source: patent publication US20230167101A1, “NOVEL INHIBITORS OF HISTONE […] P300/CBP FOR CANCER THERAPY” (BAYLOR COLLEGE OF MEDICINE, priority 2020, published 2023)
